Settings: magnetic stirrer, Tween 80 as wetting agent (FIG. 11)
Description: The dissolution behavior of NaCl in water was studied by measuring conductivity as a function of time while stirring at a constant rate using a magnetic stirrer. To ensure complete wetting, Tween 80 was used as a wetting agent.

Substance: Sodium chloride [Uncoated]
- conductivity profile (dissolution in water): instantaneous conductivity profile

Reference: patent US20050220996A1, “Process for coating a pharmaceutical particle” (priority 2002, published 2005)
